Reference: patent publication EP4523686A1, “A SIGMA-1 RECEPTOR POSITIVE MODULATOR FOR ITS USE IN THE PREVENTION AND THE TREATMENT OF A PATHOLOGY” (priority 2023, dated 2025)
“And” between values parts separate entries of the source, which are not always exact repeats. Equal entries are not always repeated.

Legend:
SIG-1R = target: T1, SIG-1R (Homo sapiens, UniProt Q99720); experiment: In vitro binding to SIG-1R ([3H](+)-pentazocine, Jurkat cell membranes, CEREP); details: for inhibition of the binding / displacement of SIG-1R radioligand (in words): no concentration stated
T1 construct: incubated with 15 nM of [^3H](+)-pentazocine in membranes preparations from Jurkat human leukemic T cells; host or cells: Jurkat human leukemic T cells (membrane preparation)
T1 sequence (Q99720 whole entry): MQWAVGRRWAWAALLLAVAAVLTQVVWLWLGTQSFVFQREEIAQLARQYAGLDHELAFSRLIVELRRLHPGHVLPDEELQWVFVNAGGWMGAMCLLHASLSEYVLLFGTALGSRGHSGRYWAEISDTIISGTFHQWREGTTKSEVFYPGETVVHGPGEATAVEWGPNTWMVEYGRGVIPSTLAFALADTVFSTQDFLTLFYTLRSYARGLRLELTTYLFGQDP
Protocol: The assay was performed by CEREP (Celle l'Evescault, France) (study 100062023). SIG-1R binding was performed according to Ganapathy et al. (1999). Increasing drug concentrations (100 nM to 30 µM) were incubated with 15 nM of [^3H](+)-pentazocine in membranes preparations from Jurkat human leukemic T cells. Samples were incubated during 120 min at 37°C and nonspecific binding level was determined using 10 µM of haloperidol. S2R binding was performed according to Ganapathy et al. (1999). Increasing drug concentrations (100 nM to 30 µM) were incubated with 25 nM of [^3H]ditolyl-guanidine in membranes preparations from Jurkat human leukemic T cells. Samples were incubated during 60 min at room temperature and nonspecific binding level was determined using 10 µM of haloperidol. Assays were performed in duplicates and results were expressed as % of specific binding level.

SIG-1R/BiP = target: T2, SIG-1R/BiP (Homo sapiens, UniProt Q99720); experiment: SIG-1R/BiP dissociation assay in GFP-SIG-1R-overexpressing CHO cells; assay type: cell-based; details: for dissociation of SIG-1R from BiP (in words) / dissociation of the SIG-1R/BiP complex (in words): compound alone; for dissociation of the SIG-1R/BiP complex (in words): no concentration stated
T2 construct: host or cells: CHO cells overexpressing GFP-SIG-1R
T2 sequence (Q99720 whole entry): as above
Protocol: CHO cells which overexpress GFP tagged-SIG-1R (gift from Tsung-Ping Su, NIDA/NIH, Baltimore, MD, USA) were maintained in DMEM/Glutamax culture medium supplemented with 10% heat inactivated FBS. GFP-SIG-1Roe CHO cells were plated in 6-well plates and treated with test compounds dissolved in culture medium for 30 min at 37°C. The reaction was terminated by removing the culture medium containing the test drug and replacing it with 1 ml of PBS. GFP-SIG-1R-oe CHO cells were harvested and suspended in PBS (pH 7.4) followed by cross-linking with 50 µg/ml of dithiobis succinimidyl propionate (ThermoFisher, France). The reaction was stopped by adding Tris/HCl 50 mM (pH 8.8). After a 15 min incubation on ice, cells were lysed with 50 mM Tris (pH 7.4), 150 mM NaCl, 1% Triton X/100, 0.3% sodium deoxycholate, 0.1% SDS buffer containing a protease inhibitor cocktail (Sigma-Aldrich, France). After centrifugation at 16,000 g for 1 min, the supernatant was incubated with Chromotek GFP-trap agarose (Proteintech, United Kingdom) overnight at 4°C.

[1] = system: Aβ25-35-induced learning impairments in mice; experiment: Step-through passive avoidance, Aβ25-35 model of Alzheimer's disease; assay type: in vivo; details: 0.3-3 mg/kg IP, single administration on day 1
Protocol: Amyloid-β[25-35] peptide (Aβ25-35) was from Eurogentec (Angers, France). It was solubilized in distilled water at 3 mg/ml and stored at -20°C until use. Before injection, the peptide was incubated at 37°C for 4 days, allowing oligomerization. Control injection was performed with vehicle solution (distilled water), and intracerebroventricularly (ICV) injections were done as described previously (Maurice et al., 1996, 2019).
The apparatus is a two-compartments (15 × 20 × 15 cm high) box with one illuminated with white polyvinylchloride walls and the other darkened with black polyvinylchloride walls and a grid floor. A guillotine door separates each compartment. A 60 W lamp positioned 40 cm above the apparatus lights up the white compartment during the experiment. Scrambled foot shocks (0.3 mA for 3 s) could be delivered to the grid floor using a shock generator scrambler (Lafayette Instruments, Lafayette, USA). The guillotine door was initially closed during the training session. Each mouse was placed into the white compartment. After 5 s, the door was raised. […] The step-through latency (STL-Tg), that is, the latency spent to enter the darkened compartment, and the number of vocalizations were recorded. […] The step-through latency (STL-R) was recorded up to 300 s (Meunier et al., 2006, 2013; Villard et al., 2009, 2011). […] Animals showing these readouts are excluded from the calculations. […]

[2] = system: Dizocilpine-induced learning impairments in mice; experiment: Spontaneous alternation in the Y-maze, Dizocilpine-induced learning impairments; assay type: in vivo
Protocol: The Y-maze is made of grey polyvinylchloride. Each arm is 40 cm long, 13 cm high, 3 cm wide at the bottom, 10 cm wide at the top, and converging at an equal angle. Each mouse was placed at the end of one arm and allowed to move freely through the maze during an 8 min session. The series of arm entries, including possible returns into the same arm, were checked visually. An alternation is defined as entries into all three arms on consecutive occasions. The number of maximum alternations is therefore the total number of arm entries minus two and the percentage of alternation was calculated as (actual alternations / maximum alternations) × 100 (Maurice et al., 1996; Meunier et al., 2006, 2013). Exclusion criteria are locomotion < 10 or percentage of alternation < 25% or > 90%. Animals showing these readouts are excluded from the calculations. Attrition is routinely < 5% in this test.
Due to the chaperone nature of SIG-1R, a SIG-1R positive modulator behaves as an agonist in vivo, particularly on learning and memory abilities in mice (Maurice et al., 2019; Vavers et al., 2019). Convolamine was tested on Dizocilpine-induced learning impairments, a well-characterized SIG-1R-mediated response in mice (Maurice et al., 1994, 2001). The NMDA receptor noncompetitive antagonist Dizocilpine (0.15 mg/kg IP) prevented spontaneous alternation behavior (Fig. 4A) and increased mobility (Fig. 4B) in the Y-maze. […] Co-treatment with the SIG-1R antagonist NE-100 at 1 mg/kg IP, blocked the attenuating effect of Convolamine (Fig. 4C), thus confirming the SIG-1R-mediated effect.

**Q.** Which IC50 (SIG-1R) does the source give for `COc1ccc(C(=O)OC2CC3CCC(C2)N3C)cc1OC` (stereo not drawn) [Convolamine, (8-methyl-8-azabicyclo[3.2.1]octan-3-yl) 3,4-dimethoxybenzoate] here?
**A.** Its IC50 is greater than 30000 nM.

**Q.** And the “inhibition of [3H](+)-pentazocine binding to SIG-1R (in words)” value (SIG-1R; at concentrations < 10 µM)?
**A.** The value was “failed to inhibit”.

**Q.** And the “inhibition of the binding / displacement of SIG-1R radioligand (in words)” value (SIG-1R)?
**A.** The value was “did not inhibit”.

**Q.** And the “inhibition of the binding / displacement of SIG-1R radioligand (in words)” value (SIG-1R; listed as convolamine)?
**A.** The value was “does not displace”.

**Q.** What about the IC50 (SIG-1R/BiP; IC50 of SIG-1R positive modulatory action (displacement of PRE-084 efficacy to dissociate SIG-1R from BiP), convolamine 0.1-10 µM with PRE-084) of the same molecule?
**A.** Its IC50 is 290 nM and 289 nM.

**Q.** And the “dissociation of SIG-1R from BiP (in words)” value (SIG-1R/BiP; at concentrations < 10 µM)?
**A.** Its value is “failed to dissociate SIG-1R from BiP”.

**Q.** And the “dissociation of SIG-1R from BiP (in words)” value (SIG-1R/BiP; at concentrations up to 30 µM)?
**A.** The value was “failed to dissociate SIG-1R from BiP”.

**Q.** What about the “dissociation of the SIG-1R/BiP complex (in words)” value (SIG-1R/BiP) of the same molecule?
**A.** Its value is “did not induce the dissociation”.

**Q.** And the “dissociation of the SIG-1R/BiP complex (in words)” value (SIG-1R/BiP; listed as convolamine)?
**A.** The value was “does not allow the dissociation”.

**Q.** What about the “Aβ25-35-induced deficit in the passive avoidance test (in words)” value [1] of the same molecule?
**A.** Its value is “not effective”.

**Q.** What about the “Dizocilpine-induced alternation deficit (in words)” value ([2]; 0.1-1 mg/kg IP range, 10 min before Dizocilpine […] IP) of the same molecule?
**A.** The value was “attenuated, dose-dependently and significantly but in a bell-shaped manner”.

**Q.** What about the “attenuating effect of Convolamine on alternation deficit under NE-100 co-treatment (in words)” value ([2]; Convolamine 1 mg/Kg IP with NE-100 at 1 mg/kg IP) of the same molecule?
**A.** The value was “blocked”.
